Measurements from patent US12187723B2 (BRISTOL-MYERS SQUIBB COMPANY, priority 2019, dated 2025).

Biological target: T1, human TLR9 (Homo sapiens, UniProt Q9NR96)
T1 construct: host or cells: HEK-Blue cells
T1 sequence (Q9NR96 26-1032): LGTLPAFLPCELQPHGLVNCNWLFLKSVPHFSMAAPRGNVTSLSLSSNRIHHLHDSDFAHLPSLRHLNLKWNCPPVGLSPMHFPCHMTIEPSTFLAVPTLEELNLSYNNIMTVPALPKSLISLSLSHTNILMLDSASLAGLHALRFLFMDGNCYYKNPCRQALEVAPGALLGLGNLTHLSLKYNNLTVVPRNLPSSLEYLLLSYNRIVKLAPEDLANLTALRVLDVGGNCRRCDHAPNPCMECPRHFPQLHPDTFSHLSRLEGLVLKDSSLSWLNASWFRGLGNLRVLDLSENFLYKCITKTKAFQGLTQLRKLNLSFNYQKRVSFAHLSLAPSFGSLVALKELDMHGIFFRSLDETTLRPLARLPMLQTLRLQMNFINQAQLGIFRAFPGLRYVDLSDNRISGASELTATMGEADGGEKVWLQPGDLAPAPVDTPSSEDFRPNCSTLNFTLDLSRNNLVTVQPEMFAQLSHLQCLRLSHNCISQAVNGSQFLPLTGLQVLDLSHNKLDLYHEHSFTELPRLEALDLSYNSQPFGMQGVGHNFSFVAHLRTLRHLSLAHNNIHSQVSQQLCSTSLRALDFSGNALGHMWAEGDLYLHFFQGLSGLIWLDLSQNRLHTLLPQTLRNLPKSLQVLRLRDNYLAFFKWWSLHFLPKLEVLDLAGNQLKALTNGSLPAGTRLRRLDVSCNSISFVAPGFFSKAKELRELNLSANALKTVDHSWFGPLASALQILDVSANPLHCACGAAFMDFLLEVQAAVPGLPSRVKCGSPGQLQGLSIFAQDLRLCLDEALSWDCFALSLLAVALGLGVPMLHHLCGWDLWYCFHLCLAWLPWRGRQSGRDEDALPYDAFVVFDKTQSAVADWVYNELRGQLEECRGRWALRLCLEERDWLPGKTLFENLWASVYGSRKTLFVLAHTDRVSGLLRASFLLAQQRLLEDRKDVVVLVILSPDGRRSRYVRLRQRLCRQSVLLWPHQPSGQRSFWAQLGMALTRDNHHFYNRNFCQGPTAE
Test: TLR9 inhibition reporter assay (HEK-Blue SEAP)
Type: cell-based
Conditions: HEK-Blue cells overexpressing human TLR9, ODN2006 5 nM, 22 hour incubation
Method in brief: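 Agonists used: gardiquimod 7.5 μM (TLR7), R848 15.9 μM (TLR8), ODN2006 5 nM (TLR9), added after 30 min room-temperature compound pre-treatment (0.05 nM–50 μM) of receptor-overexpressing HEK-Blue cells. SEAP reporter (NF-κB/AP-1 driven) read after 22 h at 37 °C; inhibition scaled between agonist+DMSO and reference-inhibitor wells.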

Compound | IC50 [µM]
COc1cc(-c2cc3[nH]c(=O)n([C@H]4CCCN(CCS(C)(=O)=O)C4)c3cc2C(C)C)cn2ncnc12 [Example 222, (S)-6-isopropyl-5-(8-methoxy-[1,2,4]triazolo[1,5-a]pyridin-6-yl)-1-(1-(2-(methylsulfonyl)ethyl)piperidin-3-yl)-1,3-dihydro-2H-benzo[d]imidazol-2-one] | > 50
CCCN1CCC[C@@H](n2c(=O)[nH]c3cc(-c4cc(OC)c5ncnn5c4)c(CC)cc32)C1 [Example 179, (R)-6-ethyl-5-(8-methoxy-[1,2,4]triazolo[1,5-a]pyridin-6-yl)-1-(1-propylpiperidin-3-yl)-1,3-dihydro-2H-benzo[d]imidazol-2-one] | 6.86
COc1cc(-c2cc3[nH]c(=O)n([C@@H]4CCCN(C5CCOC5)C4)c3cc2C(C)C)cn2ncnc12 (stereo partly drawn) [Example 216, 6-isopropyl-5-(8-methoxy-[1,2,4]triazolo[1,5-a]pyridin-6-yl)-1-((3R)-1-(tetrahydrofuran-3-yl)piperidin-3-yl)-1,3-dihydro-2H-benzo[d]imidazol-2-one] | > 50
COc1cc(-c2cc3[nH]c(=O)n(C4CCC(N5CC(O)(C(F)(F)F)C5)CC4)c3cc2C(C)C)cn2ncnc12 (single isomer, unassigned) [Example 242, 1-(4-(3-hydroxy-3-(trifluoromethyl)azetidin-1-yl)cyclohexyl)-6-isopropyl-5-(8-methoxy-[1,2,4]triazolo[1,5-a]pyridin-6-yl)-1,3-dihydro-2H-benzo[d]imidazol-2-one] | 23.7
Cc1cc2c(cc1-c1cc(C)c3ncnn3c1)[nH]c(=O)n2[C@H]1CCCN(C)C1 [Example 11, (S)-6-methyl-5-(8-methyl-[1,2,4]triazolo[1,5-a]pyridin-6-yl)-1-(1-methylpiperidin-3-yl)-1,3-dihydro-2H-benzo[d]imidazol-2-one] | 9.55
COc1cc(-c2cc3[nH]c(=O)n(C4CCN(CCS(C)(=O)=O)CC4)c3cc2C(C)C)cn2ncnc12 [Example 224, 6-isopropyl-5-(8-methoxy-[1,2,4]triazolo[1,5-a]pyridin-6-yl)-1-(1-(2-(methylsulfonyl)ethyl)piperidin-4-yl)-1,3-dihydro-2H-benzo[d]imidazol-2-one] | > 50
COc1cc(-c2cc3[nH]c(=O)n(C4CCC(N5CCNC(=O)C5)CC4)c3cc2C(C)C)cn2ncnc12 (single isomer, unassigned) [Example 233, 6-isopropyl-5-(8-methoxy-[1,2,4]triazolo[1,5-a]pyridin-6-yl)-1-(4-(3-oxopiperazin-1-yl)cyclohexyl)-1,3-dihydro-2H-benzo[d]imidazol-2-one] | > 50
COc1cc(-c2cc3[nH]c(=O)n([C@H]4CC[C@@H](NCC5CCOCC5)CC4)c3cc2C(C)C)cn2ncnc12 [Example 196, 6-isopropyl-5-(8-methoxy-[1,2,4]triazolo[1,5-a]pyridin-6-yl)-1-((1s,4s)-4-(((tetrahydro-2H-pyran-4-yl)methyl)amino)cyclohexyl)-1,3-dihydro-2H-benzo[d]imidazol-2-one] | 8.96
Cc1cc2c(cc1-c1cc(C)c3ncnn3c1)[nH]c(=O)n2[C@@H]1CCCN(C(C)C)C1 [Example 17, (R)-1-(1-isopropylpiperidin-3-yl)-6-methyl-5-(8-methyl-[1,2,4]triazolo[1,5-a]pyridin-6-yl)-1,3-dihydro-2H-benzo[d]imidazol-2-one] | 5.69
